Key:
[1] = system: Jurkat T cells; experiment: Apoptosis assay (TUNEL, flow cytometry); assay type: cell-based; conditions: 3 μM, 24 hours
Protocol: To determine the mechanism behind the ability of SCY to inhibit cell proliferation, about 2×10^5 Jurkat T cells/ml were treated with vehicle (negative control), 3 μM SCY, or 3 μM camptothecin (positive control) a (0.1% DMSO[final]) and incubated at 37° C., 5% CO2 for 24 hours. As a positive control, camptothecin, a DNA topoisomerase inhibitor, was used because of its ability to arrest Jurkat cells at the G2/M phase of the cell cycle and induce the cells to undergo apoptosis. The cells were fixed in 1% paraformaldehyde, washed once with PBS, and stored in 70% EtOH at−20° C. Apoptosis was measured using the Promega Apoptosis Detection System (Promega, Madison, Wis.) an adapted TUNEL staining method.
The cells were washed two times with 5 ml PBS 2% FBS, then transferred to a microcentrifuge tube in 1 ml PBS, 0.2% Triton×100, 5 mg/ml BSA and incubated on ice for 5 minutes. Samples were spun, PBS solution removed, then resuspended in 80 μl equilibration buffer from Promega kit and incubated at room temperature for 10 minutes. Then the samples were spun and the equilibration buffer removed. A nucleotide mix comprising 45 μl equilibration buffer, 5 μl nucleotide mix, 1 μl Tdt enzyme per sample, was used to resuspend each sample in the dark. The cells were incubated in the dark at 37° C. for 1 hour. The reaction was terminated by the addition of 20 mM EDTA. The samples were washed twice with 1 ml RNAse A and a small aliquot, about 50 μl, was viewed under a microscope. Cells were stained with fluoroscein and then counterstained with propidium iodide and analyzed for DNA content and fragmentation using a Becton-Dickinson FacsSort (Becton-Dickinson, San Jose, Calif.).

[2] = system: PMA-induced cell proliferation in mouse ear epidermis; experiment: Mouse ear cell proliferation assay (IUdR incorporation, PCNA histology); assay type: in vivo; conditions: +PMA 4 μg/ear; scytonemin 1 mg/ear, dexamethasone 0.15 mg/ear
Protocol: To determine the efficacy of scytonemin as an anti-proliferative agent in vivo, the following assay was conducted. On day one, test compounds were delivered in 10 μl 20% DMSO, 80% acetone and applied to both the inner and outer pinnae of left ears (20 μl total) of male, Swiss Webster mice (Taconic Farms, Germantown, N.Y.). The right ears received only vehicle. One hour post test compound application, 4 μg/ear PMA (Sigma, St. Louis, Mo.) in 10 μl acetone was applied to the inner pinnae of each left ear and 10 μl acetone was applied to each right ear. Four hours post test compound application, the each test compound was again applied in the same manner. On day two, the test compounds were applied twice with a four-hour interval between each application. On day three, the test compounds and PMA were applied as they had been on day one.
One hour after the final test compound applications, each mouse was injected with 0.6 ml of a solution containing the thymidine analogue, 5-iodo-I^125-2′-deoxyuridine (IUdR) (2 μCi-I^125/mouse) and, to inhibit the endogenous deoxythymidilic acid synthetase, fluorodeoxyuridine (FUdR) ([…]). This IUdR/FUdR solution was made up in RPMI 1640 media. Eighteen hours post injection, the mice were euthanized via CO2 inhalation, the ears were excised and soaked individually in a 70% EtOH solution overnight.
IUdR incorporation was then measured using a Beckman Gamma counter, Model 5500B. […] Therefore, scytoneman compounds may be used to reduce, prevent, inhibit, modulate, or attenuate cell proliferation.
Additionally, immunostaining with Proliferating Cell Nuclear Antigen (PCNA) was used as a proliferation marker to identify proliferating cells. PCNA is a cofactor for DNAt […]. Expression levels of PCNA fluctuate over the cell cycle. […] Low expression levels of PCNA indicate non-cycling cells.
Histological analysis was used to determine the effect of scytonemin on the thickness of the epidermal layer of skin, the mitotic index of cells in the epidermal layer, the number of cells in the epidermis, and the amount of immune cell infiltration. PCNA antibodies were used to detect the presence of PCNA in cells and a peroxidase-Ni/DAB development system was used to stain PCNA-positive cells black and hematoxlin was used as a nuclear blue counterstain using conventional methods.

SMILES | cells induced to undergo apoptosis [1] [%] | effect on cell cycle progression [1] | cells actively proliferating (PCNA staining) [2]
CC[C@@]1(O)C(=O)OCc2c1cc1n(c2=O)Cc2cc3ccccc3nc2-1 [camptothecin, reference compound] | 71 | arrested the cells at G2/M phase | 
C[C@@H]1C[C@H]2[C@@H]3CCC4=CC(=O)C=C[C@]4(C)[C@@]3(F)[C@@H](O)C[C@]2(C)[C@@]1(O)C(=O)CO [dexamethasone, reference compound] |  |  | about 60%

From US6495588B2, “Scytonemin and methods of using thereof” (The Regents of the University of California, priority 2000, dated 2002)
